Data reported in article PMC8248988, “A signal capture and proofreading mechanism for the KDEL-receptor explains selectivity and dynamic range in ER retrieval” (eLife, 2021).

Tested on: BIP
Test: ER chaperone secretion assay, BIP
Format: cell-based, human
Description: Figure 1. ER retrieval signal abundance and affinity are not correlated. (a) Sequence logos for ER resident proteins with C-terminal KDEL retrieval signals and variants thereof calculated using frequency or protein abundance ([Itzhak et al., 2017]; [Itzhak et al., 2016]). (b) Combined cellular concentrations of ER resident proteins with canonical KDEL, RDEL, and HDEL retrieval sequences in HeLa cells and mouse brain. (c) Competition binding assays for [^3H]-TAEHDEL and unlabelled TAEKDEL, TAERDEL, and TAEHDEL to the KDEL receptor. IC50 values for the competing peptides were used to calculate the apparent KDwith the Cheng-Prusoff equation ([Cheng and Prusoff, 1973]). (d) Endogenous KDEL receptor redistribution was measured in COS-7 cells in the absence (-ligand) or presence of K/R/H/A/DDEL (mScarlet-xDEL^sec). TGN46 was used as a Golgi marker. Scale bar is 10 µm. (e) The mean difference for K/R/H/A/DDEL comparisons against the shared no ligand control are shown as Cummings estimation plots. The individual data points for the fraction of KDEL receptor fluorescence in the Golgi are plotted on the upper axes with sample sizes and p values. Figure 1—source data 1. Source data for the ligand-induced KDELR receptor retrieval assays in Figure 1e. Figure 1—figure supplement 1. Abundance of ER resident proteins and chaperones in human cells and mouse brain. (a) The mean concentration of ER resident chaperones with the indicated ER retrieval sequence variant is plotted in the bar graph ([Itzhak et al., 2017]; [Itzhak et al., 2016]). […] Endogenous ER chaperone secretion was measured by western blotting after challenge with different retrieval signals, and plotted as a bar graph showing mean ± SEM (n = 3). […] (a) Distribution of human KDELR1 and (b) KDELR2 was measured in COS-7 cells in the absence (-ligand) or presence of K/R/H/A/DDEL retrieval signals (K/R/H/A/DDEL^sec). […] The fraction of KDEL receptor localised to the Golgi was measured before (no ligand) and after challenge with different retrieval signals as indicated. […]

Substance: ADEL [pcDNA3.1 hGHss-mScarlet-H. sapiens BiP639-654K651A (ADEL^SEC), secreted mScarlet fusion with human BiP C-terminus, ADEL signal]
- BiP secretion after challenge with retrieval signal (mean, HeLa S3, 24 hr, Western blot densitometry): 8.5
- BiP secretion after challenge with retrieval signal (replicate 1): 15.9
- BiP secretion after challenge with retrieval signal (replicate 2): 1.1
